ChEMBL document CHEMBL3822455, “Aryl or heteroaryl substituted aminal derivatives of HCV NS5A inhibitor MK-8742” (Bioorg Med Chem Lett, 2016)

What was measured:
Type in all cases: functional, organism-based, Hepacivirus hominis
Hepatitis C virus [1] = assay: Antiviral activity against HCV genotype 1b assessed as replicon RNA level measured after 3 days by real-time PCR method; details: 72 h
Hepatitis C virus [2] = assay: Antiviral activity against HCV genotype 3a assessed as replicon RNA level measured after 3 days by real-time PCR method; details: 72 h
Hepatitis C virus [3] = assay: Antiviral activity against HCV genotype 1a harboring NS5A L31V mutant assessed as replicon RNA level measured after 3 days by real-time PCR method; details: subtype 1a, 72 h
Hepatitis C virus [4] = assay: Antiviral activity against HCV genotype 2b assessed as replicon RNA level measured after 3 days by real-time PCR method; details: 72 h
Hepatitis C virus [5] = assay: Antiviral activity against HCV genotype 1a harboring NS5A Y93H mutant assessed as replicon RNA level measured after 3 days by real-time PCR method; details: subtype 1a, 72 h
Hepatitis C virus [6] = assay: Antiviral activity against HCV genotype 1a assessed as replicon RNA level measured after 3 days by real-time PCR method; details: subtype 1a, 72 h
Hepatitis C virus [7] = assay: Antiviral activity against HCV genotype 2a assessed as replicon RNA level measured after 3 days by real-time PCR method; details: 72 h
Hepatitis C virus [8] = assay: Antiviral activity against HCV genotype 4a assessed as replicon RNA level measured after 3 days by real-time PCR method; details: 72 h

SMILES	EC50 (Hepatitis C virus [1]) [pM]	EC50 (Hepatitis C virus [2]) [pM]	EC50 (Hepatitis C virus [3]) [pM]	EC50 (Hepatitis C virus [4]) [pM]	EC50 (Hepatitis C virus [5]) [pM]	EC50 (Hepatitis C virus [6]) [pM]	EC50 (Hepatitis C virus [7]) [pM]	EC50 (Hepatitis C virus [8]) [pM]
COC(=O)N[C@H](C(=O)N1CCC[C@H]1c1ncc(-c2ccc3c(c2)OC(c2cccc(OC4CCCC4)c2)n2c-3cc3cc(-c4cnc([C@@H]5CCCN5C(=O)[C@@H](NC(=O)OC)C(C)C)[nH]4)ccc32)[nH]1)C(C)C (mixture of isomers)	6	30	200	6000	4000	10		
CCCOc1cccc(C2Oc3cc(-c4cnc([C@@H]5CCCN5C(=O)[C@@H](NC(=O)OC)C(C)C)[nH]4)ccc3-c3cc4cc(-c5cnc([C@@H]6CCCN6C(=O)[C@@H](NC(=O)OC)C(C)C)[nH]5)ccc4n32)c1 (stereo partly specified)		80	300	2000	2600	10		
COC(=O)N[C@H](C(=O)N1CCC[C@H]1c1ncc(-c2ccc3c(c2)OC(c2cccc(C)c2)n2c-3cc3cc(-c4cnc([C@@H]5CCCN5C(=O)[C@@H](NC(=O)OC)C(C)C)[nH]4)ccc32)[nH]1)C(C)C (mixture of isomers)			520	2000	12000			
COC(=O)N[C@H](C(=O)N1CCC[C@H]1c1ncc(-c2ccc3c(c2)OC(c2ccccc2Cl)n2c-3cc3cc(-c4cnc([C@@H]5CCCN5C(=O)[C@@H](NC(=O)OC)C(C)C)[nH]4)ccc32)[nH]1)C(C)C (stereo partly specified)	4	2000	2000		139000	10	40	300
COC(=O)N[C@H](C(=O)N1CCC[C@H]1c1ncc(-c2ccc3c(c2)OC(c2ccc(C)cc2)n2c-3cc3cc(-c4cnc([C@@H]5CCCN5C(=O)[C@@H](NC(=O)OC)C(C)C)[nH]4)ccc32)[nH]1)C(C)C (stereo partly specified)	6	500	4000		5000	10	10	700
COC(=O)N[C@H](C(=O)N1CCC[C@H]1c1ncc(-c2ccc3c(c2)OC(c2cncnc2)n2c-3cc3cc(-c4cnc([C@@H]5CCCN5C(=O)[C@@H](NC(=O)OC)C(C)C)[nH]4)ccc32)[nH]1)C(C)C (mixture of isomers)		200	10000	10000	12000	4	20	
COC(=O)N[C@H](C(=O)N1CCC[C@H]1c1ncc(-c2ccc3c(c2)OC(c2cccc(OC(C)C)c2)n2c-3cc3cc(-c4cnc([C@@H]5CCCN5C(=O)[C@@H](NC(=O)OC)C(C)C)[nH]4)ccc32)[nH]1)C(C)C (mixture of isomers)		80	100	28000	4400	7		
COC(=O)N[C@H](C(=O)N1CCC[C@H]1c1ncc(-c2ccc3c(c2)OC(c2cccc(O)c2)n2c-3cc3cc(-c4cnc([C@@H]5CCCN5C(=O)[C@@H](NC(=O)OC)C(C)C)[nH]4)ccc32)[nH]1)C(C)C (mixture of isomers)		20		3000	800	20	30	20
COC(=O)N[C@H](C(=O)N1CCC[C@H]1c1ncc(-c2ccc3c(c2)OC(c2ccccn2)n2c-3cc3cc(-c4cnc([C@@H]5CCCN5C(=O)[C@@H](NC(=O)OC)C(C)C)[nH]4)ccc32)[nH]1)C(C)C (mixture of isomers)	10	200		3000	31000	9	60	20
COC(=O)N[C@H](C(=O)N1CCC[C@H]1c1ncc(-c2ccc3c(c2)OC(c2ccc(F)cc2)n2c-3cc3cc(-c4cnc([C@@H]5CCCN5C(=O)[C@@H](NC(=O)OC)C(C)C)[nH]4)ccc32)[nH]1)C(C)C (stereo partly specified)	6	60		2000	5000	3	2	10
COC(=O)N[C@H](C(=O)N1CCC[C@H]1c1ncc(-c2ccc3c(c2)OC(c2cc(F)ccc2OC)n2c-3cc3cc(-c4cnc([C@@H]5CCCN5C(=O)[C@@H](NC(=O)OC)C(C)C)[nH]4)ccc32)[nH]1)C(C)C (stereo partly specified)	10		1000	1000	48000	20		
COC(=O)N[C@H](C(=O)N1CCC[C@H]1c1ncc(-c2ccc3c(c2)OC(c2cccc(OC4CCCCC4)c2)n2c-3cc3cc(-c4cnc([C@@H]5CCCN5C(=O)[C@@H](NC(=O)OC)C(C)C)[nH]4)ccc32)[nH]1)C(C)C (mixture of isomers)	7			7000	3000	10		
COC(=O)N[C@H](C(=O)N1CCC[C@H]1c1ncc(-c2ccc3c(c2)OC(c2cccc(-c4ccncc4)c2)n2c-3cc3cc(-c4cnc([C@@H]5CCCN5C(=O)[C@@H](NC(=O)OC)C(C)C)[nH]4)ccc32)[nH]1)C(C)C (mixture of isomers)		80	10000	10000	40000	7	7	
COC(=O)N[C@H](C(=O)N1CCC[C@H]1c1ncc(-c2ccc3c(c2)OC(c2ccc(C(F)(F)F)cc2)n2c-3cc3cc(-c4cnc([C@@H]5CCCN5C(=O)[C@@H](NC(=O)OC)C(C)C)[nH]4)ccc32)[nH]1)C(C)C (mixture of isomers)	9	270			46000	16	27	40
COC(=O)N[C@H](C(=O)N1CCC[C@H]1c1ncc(-c2ccc3c(c2)OC(c2cccc(-c4cn[nH]c4)c2)n2c-3cc3cc(-c4cnc([C@@H]5CCCN5C(=O)[C@@H](NC(=O)OC)C(C)C)[nH]4)ccc32)[nH]1)C(C)C (mixture of isomers)		200	10000	25000	101000	10	30	
COC(=O)N[C@H](C(=O)N1CCC[C@H]1c1ncc(-c2ccc3c(c2)OC(c2ccncc2)n2c-3cc3cc(-c4cnc([C@@H]5CCCN5C(=O)[C@@H](NC(=O)OC)C(C)C)[nH]4)ccc32)[nH]1)C(C)C (mixture of isomers)	10	800	600		146000	10	20	200
COC(=O)N[C@H](C(=O)N1CCC[C@H]1c1ncc(-c2ccc3c(c2)OC(c2cccc(OCC(C)C)c2)n2c-3cc3cc(-c4cnc([C@@H]5CCCN5C(=O)[C@@H](NC(=O)OC)C(C)C)[nH]4)ccc32)[nH]1)C(C)C (mixture of isomers)	4	20	200	12000	900	10		
COC(=O)N[C@H](C(=O)N1CCC[C@H]1c1ncc(-c2ccc3c(c2)OC(c2cccc(C#N)c2)n2c-3cc3cc(-c4cnc([C@@H]5CCCN5C(=O)[C@@H](NC(=O)OC)C(C)C)[nH]4)ccc32)[nH]1)C(C)C (mixture of isomers)	< 200	< 2000		< 2000	4000	< 2000	< 2000	< 2000
COC(=O)N[C@H](C(=O)N1CCC[C@H]1c1ncc(-c2ccc3c(c2)OC(c2cc(F)cc(OC)c2)n2c-3cc3cc(-c4cnc([C@@H]5CCCN5C(=O)[C@@H](NC(=O)OC)C(C)C)[nH]4)ccc32)[nH]1)C(C)C (mixture of isomers)	7		100	100	2300	6		
